From publication PMC3618599 (Clinical cancer research : an official journal of the …, 2013)
Values belong to the compound of their own block, whether it stands above or below them.

How the values were obtained:
[1] = Vorinostat, VG and VA serum pharmacokinetics; format: in vivo, human; settings: for Change in Tmax, Cmax, and AUC0-8h: DSI schedule, day 1 or day 4, alvocidib escalated over 10–40 mg/m^2
[2] = cited from earlier work
[3] = tested on: solid tumor patients; settings: cited from earlier work
[4] = Alvocidib plasma pharmacokinetics; format: in vivo, human; settings: for Overall mean CL of alvocidib: initial dose, geometric mean ± SD
[5] = tested on: patients with relapsed, refractory, or poor prognosis acute leukemia, or RAEB-2; experiment: Phase I 3+3 dose escalation: DLT and MTD of alvocidib combined with vorinostat; format: in vivo, human
[6] = days 2 and 16, 28-day cycles, with vorinostat 800 mg
[7] = vorinostat 200 mg orally with alvocidib

Change in Tmax, Cmax, and AUC0-8h [1]: no change
SMILES: O=C(O)CCC(=O)Nc1ccccc1 [VA, 4-anilino-4-oxobutanoic acid]

Change in Tmax, Cmax, and AUC0-8h [1]: no change
AUC lower with 60 mg/m^2 compared to 40 mg/m^2 alvocidib dose ([1]; WLMI schedule): 50%
Cmax lower with 60 mg/m^2 compared to 40 mg/m^2 alvocidib dose ([1]; WLMI schedule): 50%
SMILES: O=C(CCCCCCC(=O)Nc1ccccc1)NO[C@@H]1O[C@H](C(=O)O)[C@@H](O)[C@H](O)[C@H]1O [VG, vorinostat glucuronide]

SMILES: CN1CC[C@H](c2c(O)cc(O)c3c(=O)cc(-c4ccccc4Cl)oc23)[C@H](O)C1 [alvocidib, flavopiridol]
Binding to plasma proteins [2]: highly bound
MTD, alvocidib given over 4 h [3, 6]: 30 mg/m^2
MTD, alvocidib initial 30 min infusion [3, 6]: 30 mg/m^2
Plasma concentration immediately before dosing on days 4 or 8 (accumulation) ([4]; daily and weekly infusion schedules, on average): < 1 % of the subsequent Cmax
Mean CL of alvocidib ([4]; day 4 dose, DSI schedule, after vorinostat 200 mg TID for 3 days): 9.9 ± 5.4 L/h/m^2
Mean CL of alvocidib ([4]; day 8 dose, WLMI schedule, after vorinostat 200 mg TID for 7 days): 11.0 ± 3.9 L/h/m^2
Overall mean CL of alvocidib ([4]; DSI schedule): 13.0 ± 4.8 L/h/m^2
Overall mean CL of alvocidib ([4]; WLMI schedule): 12.2 ± 5.3 L/h/m^2
MTD, alvocidib maintenance infusion ([5]; 4-h maintenance infusion, days 1 and 8 of 21-day cycle (WLMI), with vorinostat 200 mg orally TID days 1–14): 20 mg/m^2
MTD, alvocidib loading infusion ([5]; 30-min loading infusion, days 1 and 8 of 21-day cycle (WLMI), with vorinostat 200 mg orally TID days 1–14): 20 mg/m^2

SMILES: O=C(CCCCCCC(=O)Nc1ccccc1)NO [vorinostat, Vorinostat]
MTD, vorinostat ([3]; days 1–3 and 15–17, 28-day cycles, with alvocidib WLMI): 800 mg
MTD for this regimen, vorinostat ([5]; TID, with alvocidib WLMI 20/20 mg/m^2): 200 mg
Change in Tmax, Cmax, and AUC0-8h [1]: no change
Vorinostat AUC higher, WLMI compared to DSI schedule [1, 7]: 25–50%
Vorinostat Cmax higher, WLMI compared to DSI schedule [1, 7]: 25–50%
